Where a SMILES comes first, the peptide text is derived from it. Bridges are numbered along the chain shown (N, C = ends). [ ]: non-standard residue; d: D form. The star is where a group is joined. DOTA = O=C(O)CN1CCN(CC(=O)O)CCN(CC(=O)*)CCN(CC(=O)O)CC1; Phe(4-NO2) = N[C@@H](Cc1ccc([N+](=O)[O-])cc1)C(=O)O; NOTA = O=C(O)CN1CCN(CC(=O)O)CCN(CC(=O)*)CC1; Pro(cis-4-F) = O=C(O)[C@@H]1C[C@H](F)CN1; 2Nal = N[C@@H](Cc1ccc2ccccc2c1)C(=O)O; Dopa = N[C@@H](Cc1ccc(O)c(O)c1)C(=O)O; Ser(ΨH,HPro) = O=C(O)[C@@H]1COCN1; Hyp = O=C(O)[C@@H]1C[C@@H](O)CN1; 3Pal = N[C@@H](Cc1cccnc1)C(=O)O; Pentanoyl(4-Me) = CC(C)CCC(=O)*; Tic = O=C(O)[C@@H]1Cc2ccccc2CN1; Cha = N[C@@H](CC1CCCCC1)C(=O)O; Cit = NC(=O)NCCC[C@H](N)C(=O)O; NMeOrn = CN[C@@H](CCCN)C(=O)O; Butoxycarbonyl = CCCCOC(=O)*; Ac6c = NC1(C(=O)O)CCCCC1; Nva = CCC[C@H](N)C(=O)O; Pentanoyl = CCCCC(=O)*; X2 = CCCOC(=O)*
Key:
[1] = biological target: T1, human uPAR (uPAR-Fc) (Homo sapiens, UniProt Q03405); experiment: Surface plasmon resonance (SPR) assay, single cycle kinetics; format: binding; settings: pKD category for uPAR SPR activity assay; uPAR-Fc on Protein A-Chip, 25°C; read-out: pKD CAT (converted)
T1 construct: comprising amino acids Leu23-Arg303 according to UniProt entry Q03405.1; purchased R&D Systems 10378-UK-100
T1 sequence (Q03405 23-303): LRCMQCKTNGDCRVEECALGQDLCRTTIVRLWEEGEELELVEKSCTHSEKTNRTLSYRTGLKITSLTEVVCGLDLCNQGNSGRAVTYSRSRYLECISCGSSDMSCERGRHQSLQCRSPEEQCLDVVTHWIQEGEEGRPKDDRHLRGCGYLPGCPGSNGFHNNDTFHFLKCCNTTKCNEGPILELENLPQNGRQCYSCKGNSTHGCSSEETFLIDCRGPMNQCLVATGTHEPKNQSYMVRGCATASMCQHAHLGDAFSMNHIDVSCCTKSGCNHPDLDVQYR
In short: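 uPAR-Fc (Leu23-Arg303 extracellular domains, human IgG1 Fc) captured on Protein A chip to ~2000 RU; single-cycle kinetics at 25°C in HEPES running buffer pH 7.4 with 0.1% DMSO. KD from double-referenced sensorgrams fitted to 1:1 Langmuir model, reported as pKD.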

[2] = biological target: T2, uPAR-expressing HEC-265 human endometrial adenocarcinoma cells (Homo sapiens, UniProt Q03405); experiment: Competitive FACS binding assay; settings: pIC50 category of FACS binding
T2 construct: Cell surface uPAR-expressing HEC-265 human endometrial adenocarcinoma cells; host or cells: HEC-265
T2 sequence (Q03405 23-335): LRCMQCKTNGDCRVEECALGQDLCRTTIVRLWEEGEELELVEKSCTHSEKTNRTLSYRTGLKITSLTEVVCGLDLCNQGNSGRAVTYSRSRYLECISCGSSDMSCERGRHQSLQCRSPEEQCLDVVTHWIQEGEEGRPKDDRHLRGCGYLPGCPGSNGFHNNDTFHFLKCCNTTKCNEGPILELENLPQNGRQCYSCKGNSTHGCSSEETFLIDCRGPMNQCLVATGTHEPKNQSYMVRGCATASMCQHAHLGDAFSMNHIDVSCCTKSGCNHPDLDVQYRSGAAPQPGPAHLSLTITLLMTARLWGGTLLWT
In short: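 Competitive displacement of a 10 nM biotinylated peptide from HEC-265 cells (1 h, 4 °C, PBS/1% BSA), detected via APC-streptavidin by flow cytometry. pIC50 from four-parameter logistic fit of median fluorescence versus concentration.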

Kd [1] | IC50 [2] | SMILES
> 100 nM | ≥ 126 nM | CC[C@H](C)[C@@H]1NC(=O)[C@@H](C)NC(=O)[C@@H]2CCCN2C(=O)[C@H](C)NC(=O)[C@H](Cc2ccc(O)cc2)NC(=O)[C@H](CCC(N)=O)NC(=O)[C@H](CCCNC(N)=O)NC(=O)[C@@H](NC(=O)CCC(C)C)CSSC[C@@H](C(N)=O)NC(=O)[C@H](CC(C)C)NC1=O [UPAR-263, iHex-[Cys-Cit-Gln-Tyr-Ala-Pro-ala-Ile-Leu-Cys]-NH2] ({Pentanoyl(4-Me)}-C[Cit]QYAP[dA]ILC-NH2; disulfide 1-10)
< 1.58 nM | ≤ 10 nM | CCCCC(=O)N[C@H]1CSSC[C@@H](C(N)=O)NC(=O)[C@H](CCC)NC(=O)C2(CCCCC2)NC(=O)[C@@H]2C[C@@H](O)CN2C(=O)[C@@H]2CCCN2C(=O)[C@H](Cc2ccccc2)NC(=O)[C@H](Cc2ccc(O)cc2)NC(=O)[C@H](CCC(N)=O)NC(=O)[C@H](CCCNC(=N)N)NC1=O [UPAR-264, Pent-[Cys-Arg-Gln-Tyr-Phe-Pro-Hyp-Egz-Nva-Cys]-NH2] (Pentanoyl-CRQYFP[Hyp][Ac6c][Nva]C-NH2; disulfide 1-10)
> 100 nM | 39.8 to 100 nM | CCCCC(=O)N[C@H]1CSSC[C@@H](C(N)=O)NC(=O)[C@H](CCC)NC(=O)[C@H]([C@@H](C)CC)NC(=O)[C@H](CCCN)N(C)C(=O)[C@@H]2CCCN2C(=O)[C@H](Cc2ccccc2)NC(=O)[C@H](Cc2ccc(O)cc2)NC(=O)[C@H](CCCCNC(=O)CN2CCN(CC(=O)O)CCN(CC(=O)O)CCN(CC(=O)O)CC2)NC(=O)[C@H](CCCNC(N)=O)NC1=O [UPAR-265, Pent-[Cys-Cit-Lys(DOTA)-Tyr-Phe-Pro-Nmo-Ile-Nva-Cys]-NH2] (Pentanoyl-C[Cit]K(DOTA)YFP[NMeOrn]I[Nva]C-NH2; disulfide 1-10)
< 1.58 nM | ≤ 10 nM | CCCCC(=O)N[C@H]1CSSC[C@@H](C(N)=O)NC(=O)[C@H](CCC)NC(=O)[C@H]([C@@H](C)CC)NC(=O)[C@@H]2C[C@@H](O)CN2C(=O)[C@H](CC2CCCCC2)NC(=O)[C@H](Cc2ccccc2)NC(=O)[C@H](Cc2ccc(O)cc2)NC(=O)[C@H](CCC(N)=O)NC(=O)[C@H](CCCNC(=N)N)NC1=O [UPAR-266, Pent-[Cys-Arg-Gln-Tyr-Phe-Cha-Hyp-Ile-Nva-Cys]-NH2] (Pentanoyl-CRQYF[Cha][Hyp]I[Nva]C-NH2; disulfide 1-10)
10 to 100 nM | 39.8 to 100 nM | CCCOC(=O)N[C@H]1CSSC[C@@H](C(N)=O)NC(=O)[C@H](CCC)NC(=O)[C@H]([C@@H](C)CC)NC(=O)[C@@H]2C[C@@H](O)CN2C(=O)[C@@H]2CCCN2C(=O)[C@H](Cc2ccccc2)NC(=O)[C@H](Cc2ccc(O)cc2)NC(=O)[C@H](CCCCNC(=O)CN2CCN(CC(=O)O)CCN(CC(=O)O)CCN(CC(=O)O)CC2)NC(=O)[C@H](CCCNC(N)=O)NC1=O [UPAR-267, Prpoc-[Cys-Cit-Lys(DOTA)-Tyr-Phe-Pro-Hyp-Ile-Nva-Cys]-NH2] (X2-C[Cit]K(DOTA)YFP[Hyp]I[Nva]C-NH2; disulfide 1-10)

Further lines, the compound ahead of its results:

SMILES | Kd [1] | IC50 [2]
CCCCC(=O)N[C@H]1CSSC[C@@H](C(N)=O)NC(=O)[C@H](CCC)NC(=O)[C@H]([C@@H](C)CC)NC(=O)[C@@H]2C[C@@H](O)CN2C(=O)[C@@H]2CCCN2C(=O)[C@H](Cc2ccccc2)NC(=O)[C@H](Cc2ccc(O)cc2)NC(=O)[C@H](CCCCNC(=O)CN2CCN(CC(=O)O)CCN(CC(=O)O)CCN(CC(=O)O)CC2)NC(=O)[C@H](CCCNC(=O)CCCC(=O)NCCOCCOCCOCCOCCC(=O)NC(COCCC(=O)NCCOCCOCCOCCOCCOCCOCCOCCOCCOCCOCCOCCOC)(COCCC(=O)NCCOCCOCCOCCOCCOCCOCCOCCOCCOCCOCCOCCOC)COCCC(=O)NCCOCCOCCOCCOCCOCCOCCOCCOCCOCCOCCOCCOC)NC1=O [UPAR-247, Pent-[Cys-Orn(TrisPEG)-Lys(DOTA)-Tyr-Phe-Pro-Hyp-Ile-Nva-Cys]-NH2] | 10 to 100 nM | 12.6 to 31.6 nM
CCCCOC(=O)N[C@H]1CSSC[C@@H](C(N)=O)NC(=O)[C@H](CCC)NC(=O)[C@H]([C@@H](C)CC)NC(=O)[C@@H]2C[C@@H](O)CN2C(=O)[C@@H]2CCCN2C(=O)[C@H](Cc2ccccc2)NC(=O)[C@H](Cc2ccc(O)cc2)NC(=O)[C@H](CCCCNC(=O)CN2CCN(CC(=O)O)CCN(CC(=O)O)CCN(CC(=O)O)CC2)NC(=O)[C@H]([C@@H](C)O)NC1=O [UPAR-248, Butoc-[Cys-Thr-Lys(DOTA)-Tyr-Phe-Pro-Hyp-Ile-Nva-Cys]-NH2] (Butoxycarbonyl-CTK(DOTA)YFP[Hyp]I[Nva]C-NH2; disulfide 1-10) | < 1.58 nM | ≤ 10 nM
CCCCOC(=O)N[C@H]1CSSC[C@@H](C(N)=O)NC(=O)[C@H](CCC)NC(=O)[C@H]([C@@H](C)CC)NC(=O)[C@@H]2C[C@@H](O)CN2C(=O)[C@@H]2C[C@H](F)CN2C(=O)[C@H](Cc2ccccc2)NC(=O)[C@H](Cc2ccc(O)c(O)c2)NC(=O)[C@H](CCCCNC(=O)CN2CCN(CC(=O)O)CCN(CC(=O)O)CC2)NC(=O)[C@H]([C@@H](C)O)NC1=O [UPAR-250, Butoc-[Cys-Thr-Lys(NOTA)-Dopa-Phe-4Cfp-Hyp-Ile-Nva-Cys]-NH2] (Butoxycarbonyl-CTK(NOTA)[Dopa]F[Pro(cis-4-F)][Hyp]I[Nva]C-NH2; disulfide 1-10) | < 1.58 nM | ≤ 10 nM
CCCCC(=O)N[C@H]1CSSC[C@@H](C(N)=O)NC(=O)[C@H](CCC)NC(=O)[C@H]([C@@H](C)CC)NC(=O)[C@@H]2C[C@@H](O)CN2C(=O)[C@@H]2CCCN2C(=O)[C@@H]2Cc3ccccc3CN2C(=O)[C@H](Cc2ccc(O)cc2)NC(=O)[C@H](CCCCNC(=O)CN2CCN(CC(=O)O)CCN(CC(=O)O)CCN(CC(=O)O)CC2)NC(=O)[C@H](CCCNC(N)=O)NC1=O [UPAR-252, Pent-[Cys-Cit-Lys(DOTA)-Tyr-Tic-Pro-Hyp-Ile-Nva-Cys]-NH2] (Pentanoyl-C[Cit]K(DOTA)Y[Tic]P[Hyp]I[Nva]C-NH2; disulfide 1-10) | > 100 nM | ≥ 126 nM
CCCCC(=O)N[C@H]1CSSC[C@@H](C(N)=O)NC(=O)[C@H](CCC)NC(=O)[C@H]([C@@H](C)CC)NC(=O)[C@@H]2C[C@@H](O)CN2C(=O)[C@@H]2CCCN2C(=O)[C@H](Cc2cccnc2)NC(=O)[C@H](Cc2ccc(O)cc2)NC(=O)[C@H](CCCCNC(=O)CN2CCN(CC(=O)O)CCN(CC(=O)O)CCN(CC(=O)O)CC2)NC(=O)[C@H](CCCNC(N)=O)NC1=O [UPAR-253, Pent-[Cys-Cit-Lys(DOTA)-Tyr-Mpa-Pro-Hyp-Ile-Nva-Cys]-NH2] (Pentanoyl-C[Cit]K(DOTA)Y[3Pal]P[Hyp]I[Nva]C-NH2; disulfide 1-10) | 1.58 to 10 nM | ≤ 10 nM
CC[C@H](C)[C@@H]1NC(=O)[C@@H](C)NC(=O)[C@@H]2CCCN2C(=O)[C@H](Cc2ccccc2)NC(=O)[C@H](Cc2ccc(O)cc2)NC(=O)[C@H](CCC(=O)O)NC(=O)[C@H](CCCNC(N)=O)NC(=O)[C@@H](NC(=O)CCC(C)C)CSSC[C@@H](C(N)=O)NC(=O)[C@H](CC(C)C)NC1=O [UPAR-255, iHex-[Cys-Cit-Glu-Tyr-Phe-Pro-ala-Ile-Leu-Cys]-NH2] ({Pentanoyl(4-Me)}-C[Cit]EYFP[dA]ILC-NH2; disulfide 1-10) | < 1.58 nM | ≤ 10 nM
CC[C@H](C)[C@@H]1NC(=O)[C@@H](C)NC(=O)[C@@H]2CCCN2C(=O)[C@H](Cc2ccccc2)NC(=O)[C@H](Cc2ccc(O)cc2)NC(=O)[C@H](CCCCNC(=O)CN2CCN(CC(=O)O)CCN(CC(=O)O)CCN(CC(=O)O)CC2)NC(=O)[C@H](CCCNC(N)=O)NC(=O)[C@@H](NC(=O)CCC(C)C)CSSC[C@@H](C(N)=O)NC(=O)[C@H](CC(C)C)NC1=O [UPAR-256, iHex-[Cys-Cit-Lys(DOTA)-Tyr-Phe-Pro-ala-Ile-Leu-Cys]-NH2] ({Pentanoyl(4-Me)}-C[Cit]K(DOTA)YFP[dA]ILC-NH2; disulfide 1-10) | < 1.58 nM | ≤ 10 nM
CCCCC(=O)N[C@H]1CSSC[C@@H](C(N)=O)NC(=O)[C@H](CCC)NC(=O)[C@H]([C@@H](C)CC)NC(=O)[C@@H]2C[C@@H](O)CN2C(=O)[C@@H]2CCCN2C(=O)[C@H](Cc2ccccc2)NC(=O)[C@H](Cc2ccc([N+](=O)[O-])cc2)NC(=O)[C@H](CCCCNC(=O)CN2CCN(CC(=O)O)CCN(CC(=O)O)CCN(CC(=O)O)CC2)NC(=O)[C@H](CCCNC(N)=O)NC1=O [UPAR-257, Pent-[Cys-Cit-Lys(DOTA)-Nif-Phe-Pro-Hyp-Ile-Nva-Cys]-NH2] (Pentanoyl-C[Cit]K(DOTA)[Phe(4-NO2)]FP[Hyp]I[Nva]C-NH2; disulfide 1-10) | < 1.58 nM | ≤ 10 nM
CCCCC(=O)N[C@H]1CSSC[C@@H](C(N)=O)NC(=O)[C@H](CCC)NC(=O)[C@H]([C@@H](C)CC)NC(=O)[C@@H]2C[C@@H](O)CN2C(=O)[C@@H]2CCCN2C(=O)[C@H](Cc2ccccc2)NC(=O)[C@H](Cc2ccc3ccccc3c2)NC(=O)[C@H](CCC(N)=O)NC(=O)[C@H](CCCNC(=N)N)NC1=O [UPAR-259, Pent-[Cys-Arg-Gln-2Ni-Phe-Pro-Hyp-Ile-Nva-Cys]-NH2] (Pentanoyl-CRQ[2Nal]FP[Hyp]I[Nva]C-NH2; disulfide 1-10) | < 1.58 nM | ≤ 10 nM
CC[C@H](C)[C@@H]1NC(=O)[C@@H]2COCN2C(=O)[C@@H]2CCCN2C(=O)[C@H](Cc2ccccc2)NC(=O)[C@H](Cc2ccc(O)cc2)NC(=O)[C@H](CCC(N)=O)NC(=O)[C@H](CCCNC(N)=O)NC(=O)[C@@H](NC(=O)CCC(C)C)CSSC[C@@H](C(N)=O)NC(=O)[C@H](CC(C)C)NC1=O [UPAR-262, iHex-[Cys-Cit-Gln-Tyr-Phe-Pro-Oxa-Ile-Leu-Cys]-NH2] ({Pentanoyl(4-Me)}-C[Cit]QYFP[Ser(ΨH,HPro)]ILC-NH2; disulfide 1-10) | < 1.58 nM | ≤ 10 nM
